# Measured values reported in BindingDB's records for doi:10.1124/jpet.302.1.328 (University of North Carolina at Chapel Hill, 2002).
# Where “and” joins values, the source holds several entries; their conditions need not be identical. Equal values may be shown once.
# Molecular target: Histamine H1 receptor (Cavia porcellus, UniProt P31389)
# Sequence (P31389 whole entry): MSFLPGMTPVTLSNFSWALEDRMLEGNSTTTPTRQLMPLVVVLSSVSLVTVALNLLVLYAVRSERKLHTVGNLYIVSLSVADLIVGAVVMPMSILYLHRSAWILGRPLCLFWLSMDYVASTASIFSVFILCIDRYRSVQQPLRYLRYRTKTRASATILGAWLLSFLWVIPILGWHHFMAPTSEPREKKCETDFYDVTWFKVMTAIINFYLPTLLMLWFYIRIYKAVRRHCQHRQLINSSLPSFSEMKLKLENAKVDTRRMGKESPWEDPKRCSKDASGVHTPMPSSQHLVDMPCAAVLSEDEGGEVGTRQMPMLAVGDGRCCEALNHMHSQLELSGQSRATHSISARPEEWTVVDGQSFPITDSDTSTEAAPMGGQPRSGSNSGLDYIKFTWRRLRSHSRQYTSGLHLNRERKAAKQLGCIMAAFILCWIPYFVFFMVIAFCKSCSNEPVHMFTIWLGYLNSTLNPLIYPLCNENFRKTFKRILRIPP
row,SMILES,Ki
1,CN(C)[C@H]1Cc2ccccc2[C@@H](c2ccccc2)C1 [cis-H2-PAT(-)],3.92 nM and 4.91 nM
2,CN(C)[C@H]1Cc2ccccc2[C@H](c2ccccc2)C1 [trans-H2-PAT(+)],23 nM and 11.5 nM
3,Nc1nc2c(ncn2[C@@H]2O[C@H](COP(=O)(O)OP(=O)(O)OP(=O)(O)O)C(O)C2O)c(=O)[nH]1 (stereo partly drawn) [+ 1 mM GTP],> 10000 nM
4,Cc1ccc(/C(=C\CN2CCCC2)c2ccccn2)cc1 [Actahist],0.93 nM and 0.69 nM
5,CN(C)[C@@H]1Cc2ccccc2[C@H](c2ccccc2)C1 [cis-H2-PAT(+)],53.8 nM and 77.7 nM
6,O=C(O)C=CC(=O)Oc1ccc(Cl)cc1 [NSC_6445134],98 nM and 80.1 nM
7,CN(C)[C@@H]1Cc2ccccc2[C@@H](c2ccccc2)C1 [trans-PAT],1.15 nM and 0.58 nM
8,CN(C)C1Cc2ccccc2C(c2ccccc2)C1 (stereo not drawn) [cis-H2-PAT(+/-)],10.9 nM and 7.87 nM and 1.53 nM and 1.37 nM
